According to ChEMBL document CHEMBL1138926, “New pyrrolopyrimidin-6-yl benzenesulfonamides: potent A2B adenosine receptor antagonists” (Bioorg Med Chem Lett, 2006):
≈ marks a conversion by molar mass, not a printed value.

Legend:
Adenosine receptor A2b = molecular target: T1, Adenosine receptor A2b (Homo sapiens, UniProt P29275); experiment: Displacement of [3H]DPCPX from human adenosine A2B receptor expressed in HEK293 cells; format: cell-based
T1 sequence (P29275 whole entry): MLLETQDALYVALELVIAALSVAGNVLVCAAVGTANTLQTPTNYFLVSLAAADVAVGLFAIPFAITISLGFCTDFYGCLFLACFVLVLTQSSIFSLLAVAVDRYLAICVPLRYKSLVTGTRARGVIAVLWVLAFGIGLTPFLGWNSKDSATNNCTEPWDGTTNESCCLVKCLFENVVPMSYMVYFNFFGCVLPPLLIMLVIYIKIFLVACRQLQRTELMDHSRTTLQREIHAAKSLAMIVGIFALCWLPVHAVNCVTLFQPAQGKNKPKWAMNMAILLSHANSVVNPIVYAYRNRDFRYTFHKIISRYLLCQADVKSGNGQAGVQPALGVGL

Adenosine receptor A1 = molecular target: T2, Adenosine receptor A1 (Homo sapiens, UniProt P30542); experiment: Displacement of [3H]DPCPX from human adenosine A1 receptor expressed in CHO cells; format: cell-based
T2 sequence (P30542 whole entry): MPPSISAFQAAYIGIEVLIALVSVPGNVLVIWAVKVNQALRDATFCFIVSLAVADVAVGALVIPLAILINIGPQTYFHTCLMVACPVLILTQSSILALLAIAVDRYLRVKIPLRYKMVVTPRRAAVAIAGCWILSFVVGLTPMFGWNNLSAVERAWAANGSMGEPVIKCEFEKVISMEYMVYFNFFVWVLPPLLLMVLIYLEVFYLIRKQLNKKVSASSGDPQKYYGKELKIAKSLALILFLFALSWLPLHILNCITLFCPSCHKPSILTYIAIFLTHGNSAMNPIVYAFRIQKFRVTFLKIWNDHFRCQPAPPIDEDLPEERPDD

Adenosine receptor A3 = molecular target: T3, Adenosine receptor A3 (Homo sapiens, UniProt P0DMS8); experiment: Displacement of [3H]NECA from human adenosine A3 receptor expressed in HeLa cells; format: cell-based
T3 sequence (P0DMS8 whole entry): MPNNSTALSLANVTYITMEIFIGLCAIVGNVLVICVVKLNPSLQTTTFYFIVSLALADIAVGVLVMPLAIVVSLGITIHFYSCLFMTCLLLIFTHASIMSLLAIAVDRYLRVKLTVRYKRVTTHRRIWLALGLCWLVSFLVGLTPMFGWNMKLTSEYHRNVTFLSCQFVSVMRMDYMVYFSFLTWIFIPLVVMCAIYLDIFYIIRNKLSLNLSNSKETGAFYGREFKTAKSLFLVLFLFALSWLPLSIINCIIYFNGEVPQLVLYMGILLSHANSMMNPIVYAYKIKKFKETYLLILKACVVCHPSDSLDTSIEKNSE

[1] = Solubility at pH 1.2; format: physicochemical; settings: buffer
[2] = AUC in rat at 10 mg/kg, po; format: ADME, organism-based; parameters: dose 10 mg/kg, route oral; settings: plasma
[3] = Tmax in rat at 10 mg/kg, po; format: ADME, organism-based; parameters: dose 10 mg/kg, route oral; settings: in vivo
[4] = molecular target: Adenosine receptors; A1 & A2b (Homo sapiens) (UniProt P30542+P29275); experiment: Selectivity for human adenosine A2B receptor over adenosine A1 receptor; format: protein assay
[5] = molecular target: Adenosine receptors; A2b & A3 (Homo sapiens) (UniProt P29275+P0DMS8); experiment: Selectivity for human adenosine A2B receptor over adenosine A3 receptor; format: protein assay
[6] = Solubility of the compound; format: physicochemical

| IC50 (Adenosine receptor A2b) [nM] | IC50 (Adenosine receptor A1) [nM] | IC50 (Adenosine receptor A3) [nM] | Compound | other results |
| --- | --- | --- | --- | --- |
|  | 415 | 3170 | Cn1c(=O)c2[nH]c(-c3ccc(S(=O)(=O)N4CCN(Cc5ccccc5)CC4)cc3)cc2n(C)c1=O | solubility [1]: 70 µg/mL (≈ 142 µM); AUC [2]: 252 ng·h/mL; Tmax [3]: 6 h |
|  | 102 | 5250 | Cn1c(=O)c2[nH]c(-c3ccc(S(=O)(=O)N4CCN(Cc5ccc(Cl)s5)CC4)cc3)cc2n(C)c1=O |  |
| 15 | 350 | 21900 | CCn1c(=O)c2[nH]c(-c3ccc(S(=O)(=O)N4CCN(Cc5cccc(F)c5)CC4)cc3)cc2n(CC)c1=O |  |
| 10 |  |  | Cn1c(=O)c2[nH]c(-c3ccc(S(=O)(=O)N4CCN(Cc5ccc(F)cc5)CC4)cc3)cc2n(C)c1=O |  |
| 13 | 102 | 14900 | CCCn1c(=O)n(C)c(=O)c2[nH]c(-c3ccc(S(=O)(=O)N4CCN(Cc5ccc6c(c5)OCO6)CC4)cc3)cc21 |  |
|  | 152 | 8890 | Cn1c(=O)c2[nH]c(-c3ccc(S(=O)(=O)N4CCN(Cc5cccc(F)c5)CC4)cc3)cc2n(C)c1=O |  |
| 17 |  |  | CCCn1c(=O)n(C)c(=O)c2[nH]c(-c3ccc(S(=O)(=O)N4CCN(Cc5cccc(F)c5)CC4)cc3)cc21 |  |
| 1 | 183 | 12300 | Cn1c(=O)c2[nH]c(-c3ccc(S(=O)(=O)N4CCN(Cc5ccc(Br)cc5)CC4)cc3)cc2n(C)c1=O | Selectivity ratio [4]: 183; Selectivity ratio [5]: 12300 |
| 6 |  |  | Cn1c(=O)c2[nH]c(-c3ccc(S(=O)(=O)N4CCN(c5ccccc5)CC4)cc3)cc2n(C)c1=O | solubility [6]: < 10 µg/mL |
| 7 | 126 |  | Cn1c(=O)c2[nH]c(-c3ccc(S(=O)(=O)N4CCN(Cc5ccc(F)cc5F)CC4)cc3)cc2n(C)c1=O |  |
| 27 |  |  | Cn1c(=O)c2[nH]c(-c3ccc(S(=O)(=O)N4CCN(Cc5ccncc5)CC4)cc3)cc2n(C)c1=O |  |

Further lines, the compound ahead of its results:

| Compound | IC50 (Adenosine receptor A2b) [nM] | IC50 (Adenosine receptor A1) [nM] | IC50 (Adenosine receptor A3) [nM] | other results |
| --- | --- | --- | --- | --- |
| CCn1c(=O)c2[nH]c(-c3ccc(S(=O)(=O)NC4CCN(Cc5ccc(F)cc5)CC4)cc3)cc2n(CC)c1=O | 12 | 205 | 4310 |  |
| Cn1c(=O)c2[nH]c(-c3ccc(S(=O)(=O)NCCc4ccccn4)cc3)cc2n(C)c1=O |  | 150 | 2080 | solubility [1]: 57 µg/mL (≈ 130 µM); AUC [2]: 985 ng·h/mL; Tmax [3]: 6 h |
| CN(C1CCN(Cc2ccccc2)CC1)S(=O)(=O)c1ccc(-c2cc3c([nH]2)c(=O)n(C)c(=O)n3C)cc1 | 90 |  |  |  |
| COc1ccc(CNS(=O)(=O)c2ccc(-c3cc4c([nH]3)c(=O)n(C)c(=O)n4C)cc2)nc1 | 20 | 101 | 38000 |  |
| Cn1c(=O)c2[nH]c(-c3ccc(S(=O)(=O)Nc4ccccn4)cc3)cc2n(C)c1=O |  | 68 | 1320 |  |
| COc1ccc(NS(=O)(=O)c2ccc(-c3cc4c([nH]3)c(=O)n(C)c(=O)n4C)cc2)cn1 |  | 54 | 1520 |  |
| CCCn1c(=O)c2[nH]c(-c3ccc(S(=O)(=O)NCc4ccc(OC)cn4)cc3)cc2n(C)c1=O | 15 | 12 | 7600 |  |
| CCCn1c(=O)c2[nH]c(-c3ccc(S(=O)(=O)NC4CCN(Cc5ccccc5)CC4)cc3)cc2n(CCC)c1=O | 18 | 59 | 1470 |  |
| Cn1c(=O)c2[nH]c(-c3ccc(OCC(=O)Nc4ccc(Br)cc4)cc3)cc2n(C)c1=O |  |  |  | AUC [2]: < 20 ng·h/mL; solubility [6]: < 10 µg/mL |
| Cn1c(=O)c2[nH]c(-c3ccc(S(=O)(=O)NC4CCN(Cc5ccccc5)CC4)cc3)cc2n(C)c1=O | 43 |  |  |  |
| CCn1c(=O)c2[nH]c(-c3ccc(S(=O)(=O)NCCc4ccccn4)cc3)cc2n(CC)c1=O | 75 | 140 | 18900 |  |
| CCCn1c(=O)c2[nH]c(-c3ccc(S(=O)(=O)NCCc4ccccn4)cc3)cc2n(C)c1=O |  | 123 | 844 |  |
| Cn1c(=O)c2[nH]c(-c3ccc(S(=O)(=O)NCCOc4ccccn4)cc3)cc2n(C)c1=O |  | 396 | 6440 |  |
| CCCn1c(=O)c2[nH]c(-c3ccc(S(=O)(=O)N4CCN(Cc5ccc(C#N)cc5)CC4)cc3)cc2n(C)c1=O | 6 | 370 | 950 | Selectivity ratio [4]: 62; Selectivity ratio [5]: 160 |
